In ChEMBL document CHEMBL3400071, “The CERT antagonist HPA-12: first practical synthesis and individual binding evaluation of the four stereoisomers” (Bioorg Med Chem, 2015):

Each compound was assayed against T1, Ceramide transfer protein (Homo sapiens, UniProt Q9Y5P4) (assay: Binding affinity to histidine-tagged human recombinant […] containing CERT START domain pre-incubated for 30 mins before biotinylated ceramide probe addition and measured after 18 hrs post probe addition by TR-FRET binding assay).
T1 sequence (Q9Y5P4 whole entry): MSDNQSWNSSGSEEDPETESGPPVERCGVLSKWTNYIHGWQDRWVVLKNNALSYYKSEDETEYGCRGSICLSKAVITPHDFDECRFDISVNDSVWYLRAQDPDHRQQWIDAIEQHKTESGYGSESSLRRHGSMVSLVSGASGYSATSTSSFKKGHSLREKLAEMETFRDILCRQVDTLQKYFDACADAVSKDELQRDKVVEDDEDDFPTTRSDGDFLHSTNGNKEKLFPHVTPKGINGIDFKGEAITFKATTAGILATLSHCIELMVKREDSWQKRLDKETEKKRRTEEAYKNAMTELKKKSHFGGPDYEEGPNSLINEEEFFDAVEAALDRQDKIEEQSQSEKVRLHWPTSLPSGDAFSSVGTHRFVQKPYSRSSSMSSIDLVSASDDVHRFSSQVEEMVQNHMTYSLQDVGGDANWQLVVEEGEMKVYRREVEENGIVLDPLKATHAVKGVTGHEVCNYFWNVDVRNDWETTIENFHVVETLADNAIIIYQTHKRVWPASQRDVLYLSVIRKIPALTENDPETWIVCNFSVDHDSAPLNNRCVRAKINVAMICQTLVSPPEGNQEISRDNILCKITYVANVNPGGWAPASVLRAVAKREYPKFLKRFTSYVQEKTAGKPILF

| EC50 | Structure (SMILES) |
| --- | --- |
| 22 µM | CCCCCCCCCCCC(=O)N[C@@H](CO)C[C@@H](O)c1ccccc1 |
| 25 µM | CCCCCCCCCCCC(=O)N[C@H](CO)C[C@H](O)c1ccccc1 |
| 159 µM | CCCCCCCCCCCC(=O)N[C@H](CO)C[C@@H](O)c1ccccc1 |
| 4 µM | CCCCCCCCCCCC(=O)N[C@@H](CO)C[C@H](O)c1ccccc1 |
